Reference: patent publication US6509351B1, “Phenyl- and pyridyl-tetrahydro-pyridines having TNF inhibiting activity” (Sanofi-Syntelabo, priority 1999, dated 2003)
Counter-ions that a name gives are not always drawn.

| melting point | SMILES |
| --- | --- |
| 221 °C | Cc1ccc2ccc(CCN3CC=C(c4cccc(C(F)(F)F)c4)CC3)cc2n1 (as salt: hydrochloride) |
| 230 °C | CCc1cc2ccc(CCN3CC=C(c4cccc(C(F)(F)F)c4)CC3)cc2cn1 (as salt: hydrochloride) |
